Measured values published in patent publication US10537575B2, “Phosphodiesterase inhibitors to repair brain and/or retinal injury in human newborns” (priority 2016, dated 2020).

What was measured:
Format in all cases: in vivo
[1] = test system: Long-Evans rat pups (term neonatal HIE model); settings: HI rat pups
Text: The experiments were run in a dark environment (below 20 lux of illumination). The equipment consists of a 1.3 m-long glass plate with a dim fluorescent light coming from the side and beamed into the glass. The light reflected downwards by the rats' paws as they contact the glass floor is captured by a high-speed video camera placed under the walkway, and then transformed into a digital image ([…] et al., 2006; Hetze S et al., 2012; Lubjuhn J et al., 2009, […] et al., 2013, Wang Y et al., 2008). The walkway was 90 mm wide. The camera was positioned 40 cm below the walkway, and automatic detection settings were applied. The rat pups walked spontaneously at their own speed; the mother was systematically placed in the goal box to motivate the rat pups to run towards it. An intensity threshold was set to 0.1, the camera gain was set to 20, and the maximum allowed speed variation was set to 60%. A minimum of three quality runs per rat pups were acquired. Only uninterrupted runs were saved for analysis; runs, where animals turned or walked backwards, were excluded, and the animal got another try. […] Step sequence regularity index is a percent index for the degree of interlimb coordination during the gait, as measured by the number of normal step sequence patterns, multiplied by the number of paws and divided by the number of paw placements. […]

[2] = test system: Long-Evans rat pups (neonatal HI); experiment: Cerebellum injury after neonatal HI; settings: P30
Description: Neonatal HI was induced in male Long-Evans rat pups at postnatal day 10 (P10) by left common carotid ligation followed by a 2-hour exposure to 8% oxygen; sham operated rat pups served as the control. […] At P30, the rats were sacrificed, and the cerebellum was extracted. The internal granular layers and molecular layers of the cerebellum were measured across all groups on cresyl violet-stained cerebellum sections. Astrocytes expressing Vascular Endothelial Growth Factor (VEGF) in the internal granular layers and molecular layers were quantified using immunohistochemistry.

[3] = test system: Long-Evans rat pups (neonatal HI); experiment: Hippocampal injury and neuroinflammation after neonatal HI; settings: P30
Description: Neonatal HI was induced in male Long-Evans rat pups at postnatal day 10 (P10) by left common carotid ligation followed by 2-hour exposure to 8% oxygen. Sham operated rat pups served as control. […] At P30, rats were sacrificed and their brains extracted. CA1, CA3 and dentate gyrus (DG) areas of the ipsilateral hippocampus were analyzed for microgliosis (Iba1) and astrogliosis (GFAP), neuronal number (NeuN), and vascular density (collagen IV).

[4] = test system: Sprague-Dawley rats (rat model of ROP); experiment: Flash electroretinograms in rat model of ROP (hyperoxia); settings: sildenafil 50 mg/kg per os twice daily P15 to P21, P29, p<0.05
Description: Sprague-Dawley rats were exposed to hyperoxia (i.e., 80% oxygen) interrupted by three 0.5-hour periods of normoxia (i.e., 21% oxygen) per day or room air only (i.e., 21% oxygen) from post-natal day 4 (P4) to 14 (P14). Pups were then housed in room air. […] Flash electroretinograms were recorded at P29 to assess the retinal function. At P31, retinas were extracted, sectioned and stained with toluidine blue to measure the thicknesses of the different retinal layers.

Compound: CCCc1nn(C)c2c(=O)[nH]c(-c3cc(S(=O)(=O)N4CCN(C)CC4)ccc3OCC)nc12 [sildenafil]
- print length (gait) ([1]; high-dose of sildenafil): showed an increase
- neurological deficits as measured by the gait analysis ([1]; sildenafil even in small doses): improvement of the neurological deficits
- thickness of internal granular layers and molecular layers of the cerebellum ([2]; oral sildenafil 2, 10 or 50 mg/kg twice daily 7 days): improvement in the overall thickness of these layers
- VEGF expressing astrocytes in cerebellum ([2]; oral sildenafil): reduction of VEGF expressing astrocytes
- neuronal number in the dentate gyrus ([3]; HI, 50 mg/kg, vs sham vehicle): significantly increases
- number of activated microglia and reactive astrocytes in CA1 and dentate gyrus of the hippocampus ([3]; HI, higher doses (10 mg/kg and 50 mg/kg)): significantly reduced
- vascular density in hippocampus ([3]; treatment groups vs control group): no changes in vascular density
- scotopic and photopic b-wave amplitudes [4]: improvement in scotopic and photopic b-wave amplitudes
